We go through 13 compounds from US6399648B1, “N-oxides of heterocyclic ester, amide, thioester, or ketone for vision and memory disorders” (GPI NIL Holdings, Inc., priority 1998, dated 2002).

The test system of data set [1] is retinal ganglion cells and optic nerve axons. The data set is described as follows: In vivo retinal ganglion cell and optic nerve axon tests after optic nerve transection.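 On all read-outs here: adult male Sprague Dawley rats with bilateral intraorbital optic nerve transection after retrograde fluorogold labeling of retinal ganglion cells, examined on fixed retinas and optic nerve stumps.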 To be noted: for Efficacy in protecting retinal ganglion cell axons from degeneration following optic nerve transection: Table V; for RGC Counts (mean density of Fluoro-gold labeled retinal ganglion cells in 400 μm × 400 μm fields): 10 mg/kg/day sc.
Procedure: The extent of degeneration reduction or prevention in retinal ganglion cells and optic nerve axons was determined in a vision loss model utilizing surgical optic nerve transection to simulate mechanical damage to the optic nerve. The effects of several neuroimmunophilin FKBP ligands on retinal ganglion cells neuroprotection and optic nerve axon density was determined experimentally, comparing 14 day and 28 day neuroimmunophilin FKBP ligand treatments.
Retinal ganglion cells were pre-labeled by bilateral stereotaxic injection of the fluorescent retrogradely transported marker fluoro-gold (FG, 0.5 microliters of 2.5% solution in saline) at the coordinates of the LGNd (4.5 millimeters post β, 3.5 millimeters lateral, 4.6 millimeters below dura). Four days later, FG labeled rats underwent a second surgery for microsurgical bilateral intraorbital optic nerve transection 4-5 millimeters behind the orbit.
Experimental animals were divided into six experimental groups of six rats (12 eyes) per group. […] A second group received the same neuroimmunophilin FKBP ligand dose for 28 days.
All animals were sacrificed 90 days after optic nerve transection and perfused pericardially with formalin. All eyes and optic nerves stumps were removed. Cases were excluded from the study if the optic nerve vasculature was damaged or if FG labeling was absent in the retina.
Retinas were removed from eyes and prepared for wholemount analysis. For each group, five eyes with dense and intense FG labeling were selected for quantitative analysis using a 20 power objective. Digital images were obtained from five fields in the central retina (3-4 millimeters radial to optic nerve head).
Proximal and distal optic nerve stumps were identified, measured, and transferred to 30% sucrose saline. […] Sections including the region 1-2 mm behind the orbit were reacted for RT97 neurofilament immunohistochemistry. Analysis of optic nerve axon density was performed using a 63 power oil immersion lens, a Dage 81 camera, and the Simple Image Analysis program. RT97 positive optic nerve axons were counted in three 200 μm by 200 μm fields per nerve. The area of the nerve was also determined for each case at 10 power.

The target of another data set is FKBP12 (Homo sapiens, UniProt P62942). Description: Inhibition of FKBP peptidyl-prolyl isomerase (rotamase) activity, apparent Ki. The data set is classed as biochemical.
Sequence of FKBP12 (P62942 whole entry, species assumed): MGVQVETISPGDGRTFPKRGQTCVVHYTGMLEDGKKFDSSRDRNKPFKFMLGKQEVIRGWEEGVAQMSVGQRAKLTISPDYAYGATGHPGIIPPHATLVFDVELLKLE
The nature of data set [2]: Clearance (Table V comments, no method given). The data set is classed as in vitro ADME.
A further data set relates to retinal ganglion cells. The data set is described as follows: Retinal ischemia: degeneration of retinal ganglion cells, optic nerve axons and myelin. The data set is classed as in vivo, rat. To be noted: 10 mg/kg s.c. 1 hour prior to ischemia and 10 mg/kg/day for next four days, 28 days after ischemia. The source says:
Retinal ganglion cells were retrogradely labeled in adult rats by bilateral injection of fluorogold in their lateral geniculate nuclei. Labeled ganglion cells in the normal rat retina appear as white profiles against the dark background (FIG. 1A). Complete retinal ischemia was produced by infusing normal saline solution into the retinal vitreous cavity of each eye until the intraocular pressure exceeded arterial blood pressure. 28 days after the ischemic episode extensive degeneration of retinal ganglion cell was evidenced by massive reduction in the density of fluorogold labeled cells (FIG. 1B).

In the next data set the test system is aged mice. Description: Morris watermaze spatial learning and memory in aged rodents. The data set is classed as in vivo. Particulars: aged impaired mice, 10 mg/kg daily, retention testing after 3 weeks of dosing. The text has this: The Morris watermaze is widely used for assessing spatial memory formation and retention in experimental animals. The test depends on the animals ability to utilize spatial visual information in order to locate a submerged escape platform in a water tank. It is important that the tank itself be as devoid of specific visual features as possible—thus, it is always circular in shape, the sides are kept smooth and in uniform dull colors, and the water is rendered opaque with nontoxic watercolor pigment or powdered milk. This is to ensure that the animal navigates only by the use of more distant visual cues, or by the use of intra-maze cues specifically provided by the experimenter. The animals' path, speed, and swim time are tracked with a ceiling camera for later computerized analysis. Over the course of several successive trials, spatial learning can therefore be defined as a drop of distance swum, or time elapsed, from placement in the tank until escape onto the invisible platform. The procedure involved using-three-month old (young) and 18-19 month old male C57BL/6Nia aged) mice which habituated to the well known and conventional Morris watermaze during a 4 trials/day, 3-4 day visible platform training phase. […] Swim Distances (cm) were analyzed in a 7×5 ANOVA including Groups and Blocks (1-5) as factors in the analysis, treating Blocks as a repeated measure.

Setting [3] is: ONT, 14 days treatment, 90 days after transection, ± SEM.
[4] abbreviates: ONT, 14 days treatment, 90 days after transection.
Setting [5] is: ONT, 28 days treatment, 90 days after transection.
Setting [6] is: ONT, 28 days treatment, 90 days after transection, ± SEM.
[7] abbreviates: Table V comments, read-out: Ki rotomase.

Where two headings read alike, the source gives them in different places. Marks after values point to notes of the source that are not given here. A value given as a limit tells only on which side of the number the result lay.

Source text for FKBP12: The inhibition of the prolyl peptidyl cis-trans isomerase activity of FKBP may be measured as an indicator of this affinity.
These values are obtained as apparent Ki's.
The cis-trans isomerization of an alanine-proline bond in a model substrate, N-succinyl-Ala-Ala-Pro-Phe-p-nitroanilide, is monitored spectrophotometrically in a chymotrypsin-coupled assay, which releases para-nitroanilide from the trans form of the substrate. The inhibition of this reaction caused by the addition of different concentrations of inhibitor is determined, and the data is analyzed as a change in first-order rate constant as a function of inhibitor concentration to yield the apparent Ki values.
In a plastic cuvette are added 950 mL of ice cold assay buffer (25 mM HEPES, pH 7.8, 100 mM NaCl), 10 mL of FKBP (2.5 mM in 10 mM Tris-Cl pH 7.5, 100 mM NaCl, 1 mM dithiothreitol), 25 mL of chymotrypsin (50 mg/ml in 1 mM HCl) and 10 mL of test compound at various concentrations in dimethyl sulfoxide. The reaction is initiated by the addition of 5 mL of substrate (succinyl-Ala-Phe-Pro-Phe-para-nitroanilide, 5 mg/mL in 2.35 mM LiCl in trifluoroethanol).
The absorbance at 390 nm versus time is monitored for 90 seconds using a spectrophotometer and the rate constants are determined from the absorbance versus time data files.

Turning to `O=C(SCCCc1ccccc1)C1CCCN1C(=O)NC12CC3CC(CC(C3)C1)C2` (centres unmarked) [B], in data set [1] (± SEM), the “Efficacy in protecting retinal ganglion cell axons from degeneration following optic nerve transection” value (“Efficacy” below) is 100.0% ± 5.2% SEM.
The same measure, in the same setting: the figure for `O=C(SCCCc1ccccc1)C1CCCN1S(=O)(=O)Cc1ccccc1` (centres unmarked) [C] is 60.4% ± 3.1 SEM.
On to `CCC(C)(C)C(=O)C(=O)N1CCC[C@H]1C(=O)OCCCc1ccc[n+]([O-])c1` [Compound 1, 3-(3-Pyridyl)-1-propyl(2S)-1-(1,1-Dimethyl-1,2-dioxopentyl)-2-pyrrolidine-carboxylate, N-oxide], for which the Ki on FKBP12 (Table B, rotamase inhibition, read-out: Ki) turned out to be 0.225 µM.
With `CCC(C)(C)C(=O)C(=O)N1CCCCC1C(=O)SCCC(c1ccccc1)c1ccccc1` (centres unmarked) [Compound K], in data set [1] (± SEM), the “Efficacy” value was 13.0% ± 4.2% SEM. For the same compound, the Clearance in data set [2] was 4.5 µL/min.
`CCC(C)(C)C(=O)C(=O)N1CCCCC1C(=O)OC(CCc1ccccc1)CCc1ccccc1` (centres unmarked) [E]: the Clearance in data set [2] (unit printed μl/ml) amounted to 41.8 μl/ml.
As to `CCC(C)(C)C(=O)C(=O)N1CCC[C@H]1C(=O)OCCCc1cccnc1` [GPI 1046], the “preservation of axons of protected neurons in the proximal stump” value in data set [1] (Example 13, 10 mg/kg/day s.c. for 28 days, 90 days after transection) is “preserved the axons of virtually all protected neurons”. Further, the “perikaryal neuroprotection: ganglion cell population spared” value in data set [1] (Example 13, 10 mg/kg/day s.c. for 28 days, sacrificed 90 days after transection) came out at 25%. In data set [1] (setting [3]), the “RGC Counts (mean density of Fluoro-gold labeled retinal ganglion cells in 400 μm × 400 μm fields)” value is “small but not significant increase”; the “ON Axon density (RT97 labeled optic nerve axons in 200 μm × 200 μm region)” value amounted to 569 ± 23; the “Proximal optic nerve myelin basic protein Density, % recovery” value worked out at 1.6 ± 3.0 SEM % recovery. Further, in data set [1] (setting [4]), the “Distal optic nerve myelin basic protein Density, loss” value is reported as “slightly increase the density of myelin”; the “Distal optic nerve stump shrinkage (cross sectional area vs sham)” value was “did not protect against shrinkage of the distal stump”; the “ON axon Count (axonal density multiplied by ON area)” value was determined as 6820; the “increased ON axon density (adjusted for optic nerve diameter)” value amounted to 1.5×. Also, the “RGC Counts (mean density of Fluoro-gold labeled retinal ganglion cells in 400 μm × 400 μm fields)” value in data set [1] (ONT, 28 days treatment, 90 days after transection, SEM) was determined as 67.9 ± 5.8. Moreover, in data set [1] (setting [5]), the “Distal optic nerve stump, less shrinkage” value is reported as “prevented cross sectional shrinkage of the distal stump”; the “ON axon Count (axonal density multiplied by ON area)” value is 22,861*; the “increased ON axon density (adjusted for optic nerve diameter)” value was found to be 5.0×. Further, in data set [1] (setting [6]), the “ON Axon density (RT97 labeled optic nerve axons in 200 μm × 200 μm region)” value is listed as “significant increase” and the “Proximal optic nerve myelin basic protein Density, % recovery” value amounted to 70 ± 6.3 SEM % recovery. Besides, in data set [1] (± SEM), the “Efficacy” value is recorded as 60.5% ± 3.9 SEM. The “protection of fluorogold labeled retinal ganglion cells” value with retinal ganglion cells is “noticeable protection of a large proportion of the vulnerable ganglion cell population”. The “spatial memory performance (swim distance) in retention testing” value with aged mice was “significantly enhanced spatial memory performance”. Also, the Clearance in data set [2] turned out to be 63.8 µL/min.
`CCC(C)(C)C(=O)C(=O)N1CCCCC1C(=O)O` (centres unmarked) [G]: the “Efficacy” value in data set [1] (± SEM) is on record as 34.0% ± 4.8% SEM. Further, at FKBP12 (setting [7]), the Ki was greater than 10 µM.
Take `CCC(C)(C)C(=O)C(=O)N1CCCCC1C(N)=O` (centres unmarked) [H]: the “Efficacy” value in data set [1] (± SEM) was 30.3% ± 8.0% SEM.
Still for that read-out and setting: the figure for `O=C(OCCCc1cccnc1)[C@@H]1CCCN1C(=S)NC1CCCCC1` [I] is 23.8% ± 5.3 SEM.
`CCC(C)(C)C(=O)C(=O)N1CCCC1C(=O)CCCCc1cccnc1` (centres unmarked) [J]: the “Efficacy” value in data set [1] (± SEM) was 15.8% ± 4.8% SEM. In data set [2], this compound registered a Clearance of 1.5 µL/min.
Consider `CCC(C)(C)C(=O)C(=O)N1CCCC1C(=O)O` (centres unmarked) [L], for which the “Efficacy” value in data set [1] (± SEM) is reported as 7.8% ± 3.0% SEM. In addition, at FKBP12 (setting [7]), the Ki was greater than 7.74 µM.
Turning to `CCC(C)(C)C(=O)C(=O)N1CCC[C@H]1C(=O)SCCC(c1ccccc1)c1ccccc1` [M], the “Efficacy” value in data set [1] (± SEM) is −6.3% + 3.9% SEM.
For `CN(C)C(=O)N1CCCC1C(=O)SCCCc1ccccc1` (centres unmarked) [N], in data set [2] (unit printed μl/ml), the Clearance is 21.9 μl/ml.
